Data as given in article PMC9886266, “New [1,2,4]triazolo[4,3-c]quinazolines as intercalative Topo II inhibitors: Design, synthesis, biological evaluation, and in silico studies” (PLOS ONE, 2023).

How the values were obtained:
[1] = system: HCT-116 cell line; assay: MTT anti-proliferative assay, HCT-116; assay type: cell-based; conditions: Homo sapiens, 48 h, three independent experiments, read-out: In vitro cytotoxicity IC50, HCT-116
Procedure: In vitro antiproliferative activities of the target molecules were assessed against two human cancer cell lines namely, hepatocellular carcinoma (HepG2) and colorectal carcinoma (HCT-116) using MTT assay.
The anti-proliferative activity of the synthesized compounds was assessed using MTT assay protocol. A panel of human cancer cell lines namely, colorectal carcinoma (HCT-116) and hepatocellular carcinoma (HepG2) was used in this test. Doxorubicin was used as a positive control. The cell lines were got from ATCC (American Type Culture Collection) via the Holding company for biological products and vaccines (VACSERA, Cairo, Egypt). The anti-proliferative activities of the tested compounds were determined quantitatively as follows:
At first, the cells were cultured into a medium of RPMI-1640 with 10% fetal bovine serum. Then, two different antibiotics were added at 37°C in a 5% CO2 incubator: penicillin (100 units/mL) and streptomycin (100 μg/mL). Next, we seeded the cells in a 96-well plate by a density of 1.0 x 10^4 cells / well at 37°C for 48 h under 5% CO2. The synthesized compounds with different concentrations were applied into the cell lines and incubated for 48 h. After 48 h, 20 μl of MTT solution (5mg/mL) was added and incubated for 4 h. Then, DMSO (100 μl) was added into each well to dissolve the formed purple formazan. After that, a colorimetric assay was measured and recorded at absorbance of 570 nm using a plate reader (EXL 800, USA). The relative cell viability in percentage was calculated as (A570 of treated samples/A570 of untreated sample) X 100.
S2: Biological evaluation
S2.1. In vitro cytotoxic activity
The anti-proliferative activity of the synthesized compounds was assessed using MTT assay protocol. A panel of human cancer cell lines namely, colorectal carcinoma (HCT-116) and hepatocellular carcinoma (HepG2) was used in this test. As we targeted the DNA and Topo […]
cell lines were got from ATCC (American Type Culture Collection) via the Holding company for biological products and vaccines (VACSERA, Cairo, Egypt). The anti -proliferative activities of the tested compounds were determined quantitatively as follows:
At first, the cells were cultured into a medium of RPMI-1640 with 10% fetal bovine serum.
Then, two different antibiotics were added at 37 ᵒC in a 5% CO2 incubator: penicillin (100 units/mL) and streptomycin (100 µg/mL). Next, we seeded the cells in a 96 -well plate by a density of 1.0 x 10^4 cells / well at 37 ᵒC for 48 h under 5% CO2. The synthesized compounds with different concentrations were applied into the cell lines and incubated for 48 h. After 48 h, 20 µl of MTT solution (5mg/mL) was added and incubated for 4 h. Then, DMSO (100 µl) was added into each well to dissolve the formed purple formazan. After that, a colorimetric assay was measured and recorded at absorbance of 570 nm using a plate reader (EXL 800, USA). The relative cell viability in percentage was calculated as (A570 of treated samples/A570 of untreated sample) X 100. […]

[2] = system: HCT-116 cells; assay: Flow cytometry apoptosis analysis (Annexin V and PI double staining); assay type: cell-based, human; conditions: HCT-116, 2.44 μM, 48 h
Procedure: The Annexin V and PI double staining experiment was used to further investigate the apoptotic effect of compound 16 in HCT-116 cells. In this process, HCT-116 cells were treated with compound 16 at a concentration of 2.44 μM and incubated for 48 h. The apoptotic effect of compound 16 on HCT-116 cells was about nine times greater than that of untreated HCT-116 cells. In comparison to control cells (5.62%), compound 16 caused 48.82% programmed cell death (early apoptosis = 46.77% & late apoptosis = 2.05%) (Table 3 and Fig 4B).
Flow cytometry cell apoptosis analysis was used to investigate the apoptotic effect of compound 16 as follows.
[…] cells were treated with compound 16 (2.44 μM) for 48 h, collected by trypsin, centrifuged, washed two successive times with PBS, suspended in 500 μl binding buffer, and double stained with 5 μl Annexin V-FITC and 5 μl PI in the dark at room temperature for 15 min. The stained cells were measured using Epics XL-MCL™ Flow Cytometer and analyzed using Flowing software. […]
S2.6. Flow cytometry analysis for apoptosis
Flow cytometry cell apoptosis analysis was used to investigate the apoptotic effect of the synthesized compounds. […] cells were treated with compound 16 (2.44 µM) for 48 h, collected by trypsin, centrifuged, washed two successive times with PBS, suspended in 500 μl binding buffer, and double stained with 5 μl Annexin V-FITC and 5 μl PI in the dark at room temperature for 15 min. The stained cells were measured using Epics XL-MCL™ Flow Cytometer and analyzed using Flowing software.

Question: For `CCCNc1nc2ccccc2c2nnc(C(F)(F)F)n12` [Compound 16, N-Propyl-3-(trifluoromethyl)-[1,2,4]triazolo[4,3-c]quinazolin-5-amine], which IC50 [1] is on record?
Answer: Its IC50 is 2.44 ± 0.1 µM.

Question: And the “Apoptosis Early (Right Bottom)” value ([2]; mean ± SEM)?
Answer: Its value is 46.77 ± 0.83 %.

Question: And the “Apoptosis Late (Right Top)” value ([2]; mean ± SEM)?
Answer: The value was 2.05 ± 0.92%.

Question: And the “Necrosis (Left Top)” value ([2]; mean ± SEM)?
Answer: Its value is 0.90 ± 0.36.

Question: And the “Viable (Left Bottom)” value ([2]; mean ± SEM)?
Answer: The value was 50.28 ± 2.10.

Question: What about the “Programmed cell death (early + late apoptosis)” value ([2]; control cells 5.62%) of the same compound?
Answer: The value was 48.82%.
